These results are taken from US20230240953A1, “AN ANTIMICROBIAL COMPOSITION, PROCESS FOR PREPARING THE SAME AND METHOD OF USE THEREOF” (ISP INVESTMENTS LLC, priority 2020, published 2023).

Assay type in all cases: cell-based
Test [1] relates to Burkholderia cepacia 25416. Put plainly: Minimal inhibitory concentration (MIC), microplate broth dilution. Conditions: TSB, 10^6 cfu/ml, 48 hours at 35° C., read-out: Minimal Inhibitory Concentrations (MICs) mean values, B. cepacia. On the procedure:
(§1) Briefly, each active was dissolved and then serially diluted in DMSO using a 96-well dilution microplate. Automated liquid handler was then used to stamp multiple assay plates out of this dilution plate. The appropriate growth medium containing a desired microorganism was then added to each well of the plate. For bacterial strains, Trypticase Soy Broth (TSB) was used with the final cell density of the microorganisms, in each well, being 10^6 cfu/ml. For fungal strains, Yeast Malt Broth (YMB) was used with the final density of each microorganism being 10^5 cfu/ml. Bacterial plates were incubated for 48 hours at 35° C. and fungal plates were incubated for 4-5 days at 28° C. prior to being evaluated. The lowest concentration of each compound to inhibit any visible growth was defined as minimum inhibitory concentration (MIC). In some cases, the highest tested concentration of the active was limited by its solubility in water. Whenever MIC was greater than the highest tested concentration, it was reported as being equal to, or greater than (>) the previous hypothetical dilution.
A general note: In broth dilution the organism is exposed to a series of concentrations in liquid medium.

Test [2] has as its system Aspergillus brasiliensis 16404. The test is described as above. Conditions: YMB, 10^5 cfu/ml, 4-5 days at 28° C., read-out: Minimal Inhibitory Concentrations (MICs) mean values, A. brasiliensis. On the procedure: as §1
The subject of test [3] is Escherichia coli 8739. Described as above. Conditions: TSB, 10^6 cfu/ml, 48 hours at 35° C., read-out: Minimal Inhibitory Concentrations (MICs) mean values, E. coli. On the procedure: as §1
The test system of test [4] is Candida albicans 10231. The description is as above. Conditions: YMB, 10^5 cfu/ml, 4-5 days at 28° C., read-out: Minimal Inhibitory Concentrations (MICs) mean values, C. albicans. How it is done: as §1
In test [5] the test system is Pseudomonas aeruginosa 9027. The description is as above. Conditions: TSB, 10^6 cfu/ml, 48 hours at 35° C., read-out: Minimal Inhibitory Concentrations (MICs) mean values, P. aeruginosa. How it is done:
as §1

Test [6] deals with Staphylococcus aureus 6538. The test is described as above. Conditions: TSB, 10^6 cfu/ml, 48 hours at 35° C., read-out: Minimal Inhibitory Concentrations (MICs) mean values, S. aureus. On the procedure: as §1
In test [7] the test system is Burkholderia cepacia 25416. The experiment in a line: Checkerboard microplate synergy assay, compound A = HPB. To be noted: for Interaction / SI index (Synergy Index = Qa/QA+Qb/QB): HPB + compound B. On the procedure:
(§2) The synergistic antimicrobial effect was determined using a commonly accepted method described by Kull A. C, Eisman, P. C. Sylwestrowicz, H. D. and Mayer, R. L. 1961. Applied Microbiology, 9:538-541
(§3) Briefly, the standard checkerboard approach was used to make all the dilutions. HPB (compound A) solution was prepared and then serially diluted in DMSO using the 96-well dilution plate. Automated liquid handler was then used to stamp multiple assay plates using this dilution plate. Each well of the assay plate was then supplemented with a predetermined concentration of the second antimicrobial (compound B). The final concentration of DMSO was kept constant across the plate for each assay, not exceeding 3% (w/w).
(§4) To evaluate antibacterial activity of the actives, freshly prepared S. aureus and B. cepacia cells were harvested and resuspended in Trypticase Soy Broth (TSB). The cell suspension was then added to the wells of the appropriate plates with the final cell density being 10^6 cfu/ml. Fungal plates were incubated at 28° C. for 4-5 days, prior to being evaluated. Bacterial plates were incubated for 48 hours at 35° C. prior to being evaluated.
(§5) Synergy Index (SI)=Qa/QA+Qb/QB • Qa is the MIC of compound A (HPB) in ppm, when compound A is being used in combination with compound B • QA is the MIC of compound A (HPB) in ppm, acting alone • Qb is the MIC of compound B in ppm, when the compound B is being used in combination with compound A • QB is the MIC of compound B in ppm, acting alone Each ratio Qa/QA and Qb/QB is sometimes referred to as Fractional Inhibitory Concentrations (FICs) of compounds A and B, respectively, when these two compounds are being used in combination with one another. The sum of FICs constitute the Synergy Index (SI). The synergistic effect is indicated if the Synergy Index is below one (SI<1). An additive effect is indicated if the Synergy Index is equal to one (SI=1). An antagonistic effect is indicated if synergy index is greater than one (SI>1). The lower the SI index the greater the synergy.

The test system of test [8] is Staphylococcus aureus 6538. The description is as above. Conditions: for Interaction / SI index (Synergy Index = Qa/QA+Qb/QB): HPB + compound B. On the procedure: as §2, §3, §4, §5
In test [9] the test system is Aspergillus brasiliensis 16404. The description is as above. The arrangement: key to SI index (Synergy Index = Qa/QA+Qb/QB): SI = Qa/QA + Qb/QB (MICs in ppm); <1 synergy, =1 additive, >1 antagonism. Conditions: for Interaction / SI index (Synergy Index = Qa/QA+Qb/QB): HPB + compound B. How it is done:
as §2, §3
To evaluate antifungal activity of the actives, freshly prepared A. brasiliensis spores were harvested and resuspended in Yeast and Malt Broth (YMB). The spore suspension was then added to the appropriate plates with the final density being 10^5 cfu/ml.
as §4, §5

Where [10] appears, read: Aspergillus brasiliensis, 16404, compound B alone, read-out: Compound B (Qb): MIC of compound B acting alone.

Converted amounts (≈) assume the structure as drawn.

Consider `COc1ccc(CCC(C)=O)cc1` [Raspberry ketone methyl ether, 4-(4-methoxyphenyl)butan-2-one], for which the MIC in test [1] was found to be 1000 µg/mL (≈ 5.61 mM); in [2], 1000 µg/mL (≈ 5.61 mM); in test [3] it was 2000 µg/mL (≈ 11.2 mM); in test [4] it was 2000 µg/mL (≈ 11.2 mM); in [5], 4000 µg/mL (≈ 22.4 mM); in test [6], 28000 µg/mL (≈ 157 mM).

As to `CC(=O)/C=C/c1ccc(O)cc1` [4-Hydroxybenzylideneacetone, (E)-4-(4-hydroxyphenyl)but-3-en-2-one], the MIC in test [1] was determined as 1000 µg/mL (≈ 6.17 mM); in [2], 1000 µg/mL (≈ 6.17 mM); in test [3], 2000 µg/mL (≈ 12.3 mM); in [4] it was 500 µg/mL (≈ 3.08 mM); in test [5], 4000 µg/mL (≈ 24.7 mM); in test [6], 500 µg/mL (≈ 3.08 mM).

For the compound `COc1ccc(C=O)cc1OC` [Veratraldehyde], the figures for the Interaction result in test [7] (B. cepacia), in test [8] (S. aureus) and in test [9] were “synergistic”, “synergistic” and “Synergistic (The synergistic effect is indicated if the Synergy Index is below one (SI<1))”, respectively. For the same compound, the “SI index (Synergy Index = Qa/QA+Qb/QB)” value in test [7] (B. cepacia) was 0.75; in test [8] (S. aureus), no more than 0.625; in [9], 0.625. Besides, the entries for the “Compound B (Qb): MIC of compound B when used in combination with HPB” value in test [7] (B. cepacia), in [8] (S. aureus) and in test [9] were 1000 ppm, 1,000 ppm and 1,000 ppm, respectively. Moreover, the MIC in test [7] (Burkholderia cepacia, 25416, read-out: Compound B (Qb): MIC of compound B acting alone) is 2000 µg/mL; in test [8] (Staphylococcus aureus, 6538, read-out: Compound B (QB): MIC of compound B acting alone), no less than 8000 µg/mL; in [9] (setting [10]), 2000 µg/mL.

On to `CC(=O)CCc1ccc(O)cc1` [Raspberry ketone, 4-(4-hydroxyphenyl) butan-2-one], for which the MIC in test [1] amounted to 2000 µg/mL (≈ 12.2 mM); in test [2], 4000 µg/mL (≈ 24.4 mM); in [3] it was 4000 µg/mL (≈ 24.4 mM); in [4], 4000 µg/mL (≈ 24.4 mM); in test [5], 4000 µg/mL (≈ 24.4 mM); in test [6], 28000 µg/mL (≈ 171 mM). For the same compound, the MIC in test [7] (Burkholderia cepacia, 25416, B. cepacia, HPB alone, read-out: HPB (QA): MIC of HPB acting alone) was 2000 µg/mL; in [8] (Staphylococcus aureus, 6538, S. aureus, HPB alone, read-out: HPB (QA): MIC of HPB acting alone), no less than 8000 µg/mL; in test [9] (Aspergillus brasiliensis, 16404, HPB alone, read-out: HPB (QA): MIC of HPB acting alone), 4000 µg/mL.

With `CCCCCCCCCCCCCC[N+](C)(C)C.[Br-]` [Tetradecyl trimethyl ammonium bromide], the Interaction entry in [7] (B. cepacia) is reported as “synergistic”; in test [8] (S. aureus), “synergistic”; in test [9] it was “Synergistic (The synergistic effect is indicated if the Synergy Index is below one (SI<1))”. For the same compound, the entries for the “SI index (Synergy Index = Qa/QA+Qb/QB)” value in [7] (B. cepacia), in [8] (S. aureus) and in [9] were 0.625, no more than 0.5 and 0.375, respectively. In addition, the results for the “Compound B (Qb): MIC of compound B when used in combination with HPB” value in test [7] (B. cepacia), in test [8] (S. aureus) and in [9] were 6.3 ppm, 0.4 ppm and 3.1 ppm, respectively. Further, the MIC in test [7] (Burkholderia cepacia, 25416, B. cepacia, compound B alone, read-out: Compound B (Qb): MIC of compound B acting alone) is 50 µg/mL; in test [8] (Staphylococcus aureus, 6538, S. aureus, compound B alone, read-out: Compound B (QB): MIC of compound B acting alone), 1.6 µg/mL; in test [9] (setting [10]), 25 µg/mL.
